For 25 compounds, IC50 results are on record in US8937077B2, “Bicyclic diamines as janus kinase inhibitors” (Merck Sharp & Dohme Corp., priority 2010, dated 2015).

T1 sequence (P23458 875-1153 limits assumed): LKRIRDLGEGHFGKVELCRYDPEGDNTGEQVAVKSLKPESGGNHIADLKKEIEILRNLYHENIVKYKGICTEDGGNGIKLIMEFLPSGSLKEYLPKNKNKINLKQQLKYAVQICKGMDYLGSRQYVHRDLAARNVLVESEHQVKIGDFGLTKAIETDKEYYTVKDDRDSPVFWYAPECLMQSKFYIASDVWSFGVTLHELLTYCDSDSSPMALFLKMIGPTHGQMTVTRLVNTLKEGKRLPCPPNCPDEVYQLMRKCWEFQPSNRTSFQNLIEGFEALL

One assay has as its target T1, Jak1 (Homo sapiens, UniProt P23458).
T1 construct: using a recombinant purified GST-tagged catalytic domain for each enzyme; GST; purchased Invitrogen M4290
Nature of the assay: Jak Biochemical HTRF Assay (Jak1). Particulars: IC50 class, recombinant GST-tagged catalytic domain, read-out: Jak1 activity. From the text: Compounds of formula I can be prepared according to the general procedures described in the Schemes and Examples herein, using appropriate materials. Representative compounds of the present invention are exemplified herein below. The compounds exemplified are not, however, to be construed as limiting the scope of the invention in any manner. The examples further illustrate details for the preparation of the compounds of the present invention. Those skilled in the art will readily understand that known variations of protecting groups, of reagents, as well as of the conditions and processes of the following preparative procedures, can be used to prepare these compounds. It is also understood that whenever a chemical reagent is not commercially available, such a chemical reagent can be readily prepared by those skilled in the art by either following or adapting known methods described in the literature or described herein. Chiral analogs were prepared via incorporation of chiral reagents or obtained after chiral chromatography separation of a racemically generated analog. All temperatures are degrees Celsius unless otherwise noted. Mass spectra (MS) were measured either by electrospray ion-mass spectroscopy (ESMS) or by atmospheric pressure chemical ionization mass spectroscopy (APCI). Jak1 data were obtained using the in vitro assay described below.
Jak Biochemical HTRF Assay Protocol
The ability of compounds to inhibit the activity of Jak1, Jak2, Jak3, and Tyk2 was measured using a recombinant purified GST-tagged catalytic domain for each enzyme (Invitrogen Jak1 #M4290, […]) in an HTRF format biochemical assay. The reactions employed a common peptide substrate, LCB-EQEDEPEGDYFEWLW-NH2 (in-house). The basic assay protocol is as follows: First, […] of diluted compounds in DMSO were dispensed into the wells of a dry 384-well Black plate (Greiner #781076) using a Labcyte Echo 555 acoustic dispenser. Subsequent reagent additions employed an Agilent Bravo. Next, 18 μL, of 1.11X enzyme and 1.11X substrate in 1X assay buffer (Invitrogen kinase buffer #PV3189, 2 mM DTT, 0.05% BSA) were added to the wells and shaken and then preincubated for 30 minutes at room temperature to allow compound binding to equilibrate. After equilibration, 2 μL of 10X ATP in 1X assay buffer was added to initiate the kinase reaction and the plates were shaken and then incubated at room temperature for 120 minutes. At the end of the incubation, 20 μL of 2X stop buffer (streptavidin-Dylight (Thermo #21845), Eu-tagged pY20 antibody (Perkin Elmer #AD0067), EDTA, HEPES, and Triton) was added to quench the reaction. Plates were shaken and centrifuged and then incubated 60 minutes at room temperature and then read on a Perkin Elmer Envision (λex=337 nm, λem=665 and 615 nm, TRF delay time=20 μs). HTRF signal=10,000*665 nm reading/615 nm reading. After normalization to untreated controls, the percent inhibition of the HTRF signal at each compound concentration was calculated. The plot of percent inhibition versus the log of compound concentration was fit with a 4-parameter dose response equation to calculate IC50 values.
A general note: Time-resolved FRET reads energy transfer from a long-lived donor to a nearby acceptor.
As for `Cc1cccc(COC(=O)N2CCCC3C2CCN3c2ncnc3[nH]ccc23)c1` (stereo not drawn) [Example 3-16, 3-methylbenzyl 1-(7H-pyrrolo[2,3-d]pyrimidin-4-yl)octahydro-4H-pyrrolo[3,2-b]-pyridine-4-carboxylate], the IC50 fell in the range of 10 to 100 nM. As for `Cc1ccc(COC(=O)N2CCCC3C2CCN3c2ncnc3[nH]ccc23)cc1` (stereo not drawn) [Example 3-17, 4-methylbenzyl 1-(7H-pyrrolo[2,3-d]pyrimidin-4-yl)octahydro-4H-pyrrolo[3,2-b]-pyridine-4-carboxylate], the IC50 was 10 to 100 nM. For `O=C(OCc1cnccn1)N1CCCC2C1CCN2c1ncnc2[nH]ccc12` (stereo not drawn) [Example 3-18, pyrazin-2-ylmethyl 1-(7H-pyrrolo[2,3-d]pyrimidin-4-yl)octahydro-4H-pyrrolo[3,2-b]-pyridine-4-carboxylate], the IC50 is 10 to 100 nM. The same measure, in the same setting: the result for `O=C(OCc1cccnc1)N1CCC[C@@H]2[C@H]1CCN2c1ncnc2[nH]ccc12` [Example 3-19, pyridin-3-ylmethyl (3aR,7aR)-1-(7H-pyrrolo[2,3-d]pyrimidin-4-yl)octahydro-4H-pyrrolo[3,2-b]pyridine-4-carboxylate] reads 100 to 1000 nM. On to `COC(=O)c1cccc(COC(=O)N2CCC[C@@H]3[C@H]2CCN3c2ncnc3[nH]ccc23)c1` [Example 3-20, 3-(methoxycarbonyl)benzyl (3aR,7aR)-1-(7H-pyrrolo[2,3-d]pyrimidin-4-yl)octahydro-4H-pyrrolo[3,2-b]pyridine-4-carboxylate], for which the IC50 lay within 100 to 1000 nM. In the case of `COC(=O)c1ccc(CCOC(=O)N2CCC[C@@H]3[C@H]2CCN3c2ncnc3[nH]ccc23)cc1` [Example 3-21, 2-[4-(methoxycarbonyl)phenyl]ethyl (3aR,7aR)-1-(7H-pyrrolo[2,3-d]pyrimidin-4-yl)octahydro-4H-pyrrolo[3,2-b]pyridine-4-carboxylate], the IC50 fell in the range of 10 to 100 nM. Same read-out and setting: the value for `COC(=O)c1ccc(CCCOC(=O)N2CCC[C@@H]3[C@H]2CCN3c2ncnc3[nH]ccc23)cc1` [Example 3-22, 3-[4-(methoxycarbonyl)phenyl]propyl (3aR,7aR)-1-(7H-pyrrolo[2,3-d]pyrimidin-4-yl)octahydro-4H-pyrrolo[3,2-b]pyridine-4-carboxylate] was 10 to 100 nM; that for `C[C@@H](OC(=O)N1CCCC2C1CCN2c1ncnc2[nH]ccc12)c1ccccc1` (stereo partly drawn) [Example 3-23, (1R)-1-phenylethyl 1-(7H-pyrrolo[2,3-d]pyrimidin-4-yl)octahydro-4H-pyrrolo[3,2-b]-pyridine-4-carboxylate] was 10 to 100 nM; that for `C[C@H](OC(=O)N1CCCC2C1CCN2c1ncnc2[nH]ccc12)c1ccccc1` (stereo partly drawn) [Example 3-24, (1S)-1-phenylethyl 1-(7H-pyrrolo[2,3-d]pyrimidin-4-yl)octahydro-4H-pyrrolo[3,2-b]-pyridine-4-carboxylate] was 10 to 100 nM. Turning to `COC(=O)c1ccc(COC(=O)N2CCCC3C2CCN3c2ncnc3[nH]ccc23)cc1` (stereo not drawn) [Example 3-25, 4-(methoxycarbonyl)benzyl 1-(7H-pyrrolo[2,3-d]pyrimidin-4-yl)octahydro-4H-pyrrolo[3,2-b]pyridine-4-carboxylate], the IC50 is 1 to 10 nM. Regarding `COC(=O)c1cccc(OC(=O)N2CCCC3C2CCN3c2ncnc3[nH]ccc23)c1` (stereo not drawn) [Example 3-26, 3-(methoxyeaxbonyl)phenyl 1-(7H-pyrrolo[2,3-d]pyrimidin-4-yl)octahydro-4H-pyrrolo[3,2-b]pyridine-4-carboxylate], the IC50 lay in the range of 10 to 100 nM. For `O=C(OCCN1CCS(=O)(=O)CC1)N1CCC[C@@H]2[C@H]1CCN2c1ncnc2[nH]ccc12` [Example 3-27, 2-(1,1-dioxidothiomorpholin-4-yl)ethyl (3 aR,7 aR)-1-(7H-pyrrolo[2,3-d]pyrimidin-4-yl)octahydro-4H-pyrrolo[3,2-b]pyridine-4-carboxylate], the IC50 was in the range of 100 to 1000 nM.

`O=C(OCCc1ccc2c(c1)CCO2)N1CCC[C@@H]2[C@H]1CCN2c1ncnc2[nH]ccc12` [Example 3-28, 2-(2,3-dihydro-1-benzofuran-5-yl)ethyl (3aR,7aR)-1-(7H-pyrrolo[2,3-d]pyrimidin-4-yl)octahydro-4H-pyrrolo[3,2-b]pyridine-4-carboxylate]: the IC50 was in the range of 10 to 100 nM. For `COC(=O)C1CC1CCOC(=O)N1CCC[C@@H]2[C@H]1CCN2c1ncnc2[nH]ccc12` (stereo partly drawn) [Example 3-29, 2-[2-(methoxycarbonyl)cyclopropyl]ethyl (3aR,7aR)-1-(7H-pyrrolo[2,3-d]pyrimidin-4-yl)octahydro-4H-pyrrolo[3,2-b]pyridine-4-carboxylate], the IC50 is 10 to 100 nM. Regarding `O=C(OCC1CC1)N1CCC[C@@H]2[C@H]1CCN2c1ncnc2[nH]ccc12` [Example 3-31, cyclopropylmethyl (3aR,7aR)-1-(7H-pyrrolo[2,3-d]pyrimidin-4-yl)octahydro-4H-pyrrolo[3,2-b]pyridine-4-carboxylate], the IC50 was in the range of 10 to 100 nM.

`O=C(OC1CCCCC1)N1CCC[C@@H]2[C@H]1CCN2c1ncnc2[nH]ccc12` [Example 3-32, cyclohexyl (3aR,7aR)-1-(7H-pyrrolo[2,3-d]pyrimidin-4-yl)octahydro-4H-pyrrolo[3,2-b]pyridine-4-carboxylate]: the IC50 lay within 10 to 100 nM. Turning to `O=C(OCc1ccccc1F)N1CCC[C@@H]2[C@H]1CCN2c1ncnc2[nH]ccc12` [Example 3-33, 2-fluorobenzyl (3aR,7aR)-1-(7H-pyrrolo[2,3-d]pyrimidin-4-yl)octahydro-4H-pyrrolo[3,2-b]pyridine-4-carboxylate], the IC50 was in the range of 1 to 10 nM.

Regarding `O=C(OCCc1cccc2ccccc12)N1CCC[C@@H]2[C@H]1CCN2c1ncnc2[nH]ccc12` [Example 3-34, 2-naphthalen-1-ylethyl (3aR,7aR)-1-(7H-pyrrolo[2,3-d]pyrimidin-4-yl)octahydro-4H-pyrrolo[3,2-b]pyridine-4-carboxylate], the IC50 lay within 100 to 1000 nM. Turning to `O=C1CCCN1CCOC(=O)N1CCC[C@@H]2[C@H]1CCN2c1ncnc2[nH]ccc12` [Example 3-36, 2-(2-oxopyrrolidin-1-yl)ethyl (3aR,7aR)-1-(7H-pyrrolo[2,3-d]pyrimidin-4-yl)octahydro-4H-pyrrolo[3,2-b]pyridine-4-carboxylate], the IC50 lay within 100 to 1000 nM. Same read-out and setting: the value for `O=C(OCCc1ccccn1)N1CCC[C@@H]2[C@H]1CCN2c1ncnc2[nH]ccc12` [Example 3-37, 2-pyridin-2-ylethyl (3aR,7 aR)-1-(7H-pyrrolo[2,3-d]pyrimidin-4-yl)octahydro-4H-pyrrolo[3,2-b]pyridine-4-carboxylate] was 10 to 100 nM. With `O=C(OCCN1CCOCC1)N1CCC[C@@H]2[C@H]1CCN2c1ncnc2[nH]ccc12` [Example 3-39, 2-morpholin-4-ylethyl (3aR,7aR)-1-(7H-pyrrolo[2,3-d]pyrimidin-4-yl)octahydro-4H-pyrrolo[3,2-b]pyridine-4-carboxylate], the IC50 fell in the range of 10 to 100 nM.

Take `O=C(OCCN1CCCC1)N1CCC[C@@H]2[C@H]1CCN2c1ncnc2[nH]ccc12` [Example 3-40, 2-pyrrolidin-1-ylethyl (3aR,7aR)-1-(7H-pyrrolo[2,3-d]pyrimidin-4-yl)octahydro-4H-pyrrolo[3,2-b]pyridine-4-carboxylate]: the IC50 was in the range of 100 to 1000 nM. In the case of `CN1CCN(CCOC(=O)N2CCC[C@@H]3[C@H]2CCN3c2ncnc3[nH]ccc23)CC1` [Example 3-41, 2-(4-methylpiperazin-1-yl)ethyl(3aR,7aR)-1-(7H-pyrrolo[2,3-d]pyrimidin-4-yl)octahydro-4H-pyrrolo[3,2-b]pyridine-4-carboxylate], the IC50 is 100 to 1000 nM.

For `CN1CCC(COC(=O)N2CCC[C@@H]3[C@H]2CCN3c2ncnc3[nH]ccc23)CC1` [Example 3-42, (1-methylpiperidin-4-yl)methyl (3 aR,7 aR)-1-(7H-pyrrolo[2,3-d]pyrimidin-4-yl)octahydro-4H-pyrrolo[3,2-b]pyridine-4-carboxylate], the IC50 is 100 to 1000 nM. On to `O=C(OCCc1cc(F)cc(F)c1)N1CCC[C@@H]2[C@H]1CCN2c1ncnc2[nH]ccc12` [Example 3-44, 2-(3,5-difluorophenyl)ethyl (3aR,7aR)-1-(7H-pyrrolo[2,3-d]pyrimidin-4-yl)octahydro-4H-pyrrolo[3,2-b]pyridine-4-carboxylate], for which the IC50 was 10 to 100 nM.

Staying with this assay, now noted: recombinant GST-tagged catalytic domain, 31.8 μM ATP, read-out: Representative IC50 values.
With `O=C(OC1CCCCC1)N1CCC[C@@H]2[C@H]1CCN2c1ncnc2[nH]ccc12` [Example 3-32, cyclohexyl (3aR,7aR)-1-(7H-pyrrolo[2,3-d]pyrimidin-4-yl)octahydro-4H-pyrrolo[3,2-b]pyridine-4-carboxylate], the IC50 turned out to be 11 nM.

Take `CN1CCN(CCOC(=O)N2CCC[C@@H]3[C@H]2CCN3c2ncnc3[nH]ccc23)CC1` [Example 3-41, 2-(4-methylpiperazin-1-yl)ethyl(3aR,7aR)-1-(7H-pyrrolo[2,3-d]pyrimidin-4-yl)octahydro-4H-pyrrolo[3,2-b]pyridine-4-carboxylate]: the IC50 amounted to 131 nM.
